Measurements taken from article PMC9009073, “Transcriptome Analysis of Stephania tetrandra and Characterization of Norcoclaurine-6-O-Methyltransferase Involved in Benzylisoquinoline Alkaloid Biosynthesis” (Frontiers in Plant Science, 2022).

System: St6OMT2
Assay: UPLC quantification of (S)-coclaurine formed; Hill function fit
Type: biochemical, Stephania tetrandra
Conditions: co-substrate S-adenosyl-L-methionine (1 mM in standard assay); 37°C; PBS; substrate 10–200 μM

How did the Km turn out when Oc1ccc(C[C@@H]2NCCc3cc(O)c(O)cc32)cc1 [(S)-norcoclaurine] was run?
The Km was 28.2 µM.
